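Growth conditions: 96-well plates. Treatment: test compound, 48 hours, 5 concentrations. Analysis: linear interpolation between bracketing concentrations; unreached endpoints set to highest concentration. GI50 is the concentration that inhibits growth by half. At the TGI there is no net growth.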
Experiments:
Test in all cases: growth of human tumour cells (NCI), 48 h
[1] = test system: BT-549 breast
[2] = test system: NCI/ADR-RES ovarian
[3] = test system: SR leukemia
[4] = test system: HOP-62 NSCLC
[5] = test system: CCRF-CEM leukemia
[6] = test system: IGROV1 ovarian
[7] = test system: SF-539 CNS
[8] = test system: HOP-92 NSCLC
[9] = test system: SF-295 CNS
[10] = test system: A549 NSCLC
[11] = test system: RXF 393 renal
[12] = test system: A498 renal
[13] = test system: EKVX NSCLC
[14] = test system: DU-145 prostate
[15] = test system: NCI-H522 lung
[16] = test system: U251 CNS
[17] = test system: HL-60(TB) leukemia
[18] = test system: MOLT-4 leukemia
[19] = test system: SK-MEL-2 melanoma
[20] = test system: PC-3 prostate
[21] = test system: HCT-116 colon
[22] = test system: CAKI-1 renal
[23] = test system: ACHN renal
[24] = test system: K-562 leukemia
[25] = test system: OVCAR-3 ovarian
[26] = test system: HCC-2998 colon
[27] = test system: UACC-62 melanoma
[28] = test system: OVCAR-4 ovarian
[29] = test system: SK-MEL-5 melanoma
[30] = test system: SN12C renal
[31] = test system: NCI-H460 lung
[32] = test system: RPMI-8226 leukemia
[33] = test system: SW-620 colon
[34] = test system: OVCAR-5 ovarian
[35] = test system: MDA-MB-435
[36] = test system: UACC-257 melanoma
[37] = test system: KM12 colon
[38] = test system: SK-OV-3 ovarian
[39] = test system: M14 melanoma
[40] = test system: UO-31 renal
[41] = test system: HS 578T breast
[42] = test system: HCT-15 colon
[43] = test system: SK-MEL-28 melanoma
[44] = test system: MALME-3M melanoma
[45] = test system: OVCAR-8 ovarian
[46] = test system: 786-0 renal
[47] = test system: HT29 colon
[48] = test system: TK-10 renal
[49] = test system: SNB-75 CNS
[50] = test system: COLO 205 colon
[51] = test system: LOX IMVI melanoma
[52] = test system: SF-268 CNS
[53] = test system: MDA-MB-231 breast
[54] = test system: SNB-19 CNS
[55] = test system: NCI-H226 lung
[56] = test system: NCI-H23 lung
[57] = test system: MCF7 breast

## CNC(=O)c1cc(Oc2ccc3nc(NC(=O)c4ccc(CN5CCCN(C)CC5)c(C(F)(F)F)c4)sc3c2)ccn1
[1]
  GI50: 1680 nM
  TGI: 3140 nM
[2]
  GI50: 1680 nM
  TGI: 3.53 µM
[3]
  GI50: 502 nM
  TGI: 2150 nM
[4]
  GI50: 1610 nM
  TGI: 3.08 µM
[5]
  GI50: 1800 nM
  TGI: 4.06 µM
[6]
  GI50: 1740 nM
  TGI: 3.4 µM
[7]
  GI50: 1100 nM
  TGI: 2320 nM
[8]
  GI50: 1360 nM
  TGI: 3 µM
[9]
  GI50: 1760 nM
  TGI: 3.22 µM
[10]
  GI50: 1640 nM
  TGI: 3.08 µM
[11]
  GI50: 1070 nM
  TGI: 2.27 µM
[12]
  GI50: 1960 nM
  TGI: 3380 nM
[13]
  GI50: 1700 nM
  TGI: 3.14 µM
[14]
  GI50: 1700 nM
  TGI: 3.28 µM
[15]
  GI50: 1740 nM
  TGI: 3310 nM
[16]
  GI50: 1440 nM
  TGI: 2.8 µM
[17]
  GI50: 1350 nM
  TGI: 2940 nM
[18]
  GI50: 1460 nM
  TGI: 3.1 µM
[19]
  GI50: 1780 nM
  TGI: 3.38 µM
[20]
  GI50: 1480 nM
  TGI: 3.24 µM
[21]
  GI50: 1160 nM
  TGI: 2400 nM
[22]
  GI50: 1520 nM
  TGI: 2900 nM
[23]
  GI50: 1720 nM
  TGI: 3.09 µM
[24]
  GI50: 331 nM
  TGI: 1460 nM
[25]
  GI50: 1850 nM
  TGI: 3.41 µM
[26]
  GI50: 1880 nM
  TGI: 3.36 µM
[27]
  GI50: 1690 nM
  TGI: 3.32 µM
[28]
  GI50: 1.6 µM
  TGI: 3.11 µM
[29]
  GI50: 1590 nM
  TGI: 2.98 µM
[30]
  GI50: 1730 nM
  TGI: 3.3 µM
[31]
  GI50: 1650 nM
  TGI: 3.14 µM
[32]
  GI50: 694 nM
  TGI: 2.6 µM
[33]
  GI50: 1700 nM
  TGI: 3.19 µM
[34]
  GI50: 1640 nM
  TGI: 3.07 µM
[35]
  GI50: 1480 nM
  TGI: 2880 nM
[36]
  GI50: 1570 nM
  TGI: 2950 nM
[37]
  GI50: 1680 nM
  TGI: 3.21 µM
[38]
  GI50: 1760 nM
  TGI: 3.27 µM
[39]
  GI50: 1220 nM
  TGI: 2650 nM
[40]
  GI50: 1350 nM
  TGI: 2710 nM
[41]
  GI50: 1480 nM
  TGI: 3.8 µM
[42]
  GI50: 959 nM
  TGI: 2240 nM
[43]
  GI50: 1300 nM
  TGI: 2640 nM
[44]
  GI50: 1400 nM
  TGI: 2840 nM
[45]
  GI50: 1670 nM
  TGI: 3.18 µM
[46]
  GI50: 1250 nM
  TGI: 2.55 µM
[47]
  GI50: 387 nM
  TGI: 1480 nM
[48]
  GI50: 2.4 µM
  TGI: 4.03 µM
[49]
  GI50: 1220 nM
  TGI: 2480 nM
[50]
  GI50: 1390 nM
  TGI: 2780 nM

## CCN1C(=O)N(CC)C2SC(N/N=C/C=C/c3ccccc3OC)=NC21 (stereo unspecified)
[1]
  GI50: 353 nM
  TGI: 1410 nM
[51]
  GI50: 569 nM
  TGI: 26.9 µM
[2]
  GI50: 495 nM
  TGI: > 100 µM
[3]
  GI50: 351 nM
  TGI: > 100000 nM
[52]
  GI50: 2510 nM
  TGI: > 100 µM
[4]
  GI50: 535 nM
  TGI: > 100 µM
[5]
  GI50: 386 nM
  TGI: > 100 µM
[6]
  GI50: 668 nM
  TGI: > 100 µM
[53]
  GI50: 1500 nM
  TGI: 38.6 µM
[7]
  GI50: 305 nM
  TGI: 2940 nM
[8]
  GI50: 266 nM
  TGI: 4.3 µM
[9]
  GI50: 371 nM
  TGI: > 55.1 µM
[10]
  GI50: 750 nM
  TGI: > 100 µM
[11]
  GI50: 350 nM
  TGI: 8.9 µM
[12]
  GI50: 188 nM
  TGI: 636 nM
[13]
  GI50: 1120 nM
  TGI: > 100 µM
[14]
  GI50: 704 nM
  TGI: > 100 µM
[15]
  GI50: 236 nM
  TGI: 703 nM
[16]
  GI50: 400 nM
  TGI: 16.9 µM
[17]
  GI50: 299 nM
[54]
  GI50: 538 nM
  TGI: > 100 µM
[18]
  GI50: 652 nM
  TGI: > 100 µM
[19]
  GI50: 672 nM
  TGI: 18.1 µM
[20]
  GI50: 474 nM
  TGI: > 72.5 µM
[21]
  GI50: 419 nM
  TGI: > 100000 nM
[22]
  GI50: 567 nM
  TGI: > 100000 nM
[23]
  GI50: 744 nM
  TGI: > 100 µM
[55]
  GI50: 562 nM
  TGI: > 100 µM
[24]
  GI50: 400 nM
  TGI: > 100000 nM
[26]
  GI50: 853 nM
  TGI: 13.6 µM
[27]
  GI50: 405 nM
  TGI: > 100 µM
[56]
  GI50: 614 nM
  TGI: > 100 µM
[28]
  GI50: 20.3 µM
  TGI: > 100 µM
[29]
  GI50: 525 nM
  TGI: 9.17 µM
[30]
  GI50: 991 nM
  TGI: > 76.6 µM
[31]
  GI50: 379 nM
  TGI: 13.1 µM
[32]
  GI50: 398 nM
  TGI: 18.2 µM
[33]
  GI50: 383 nM
  TGI: > 100 µM
[34]
  GI50: 1300 nM
  TGI: > 100 µM
[35]
  GI50: 224 nM
  TGI: 560 nM
[36]
  GI50: 838 nM
  TGI: > 100000 nM
[57]
  GI50: 427 nM
  TGI: > 100 µM
[37]
  GI50: 431 nM
  TGI: > 46.3 µM
[38]
  GI50: 528 nM
  TGI: > 100 µM
[39]
  GI50: 313 nM
  TGI: 3230 nM
[40]
  GI50: 730 nM
  TGI: > 100000 nM
[41]
  GI50: 321 nM
  TGI: > 100 µM
[42]
  GI50: 428 nM
  TGI: > 100000 nM
[43]
  GI50: 1510 nM
  TGI: > 100000 nM
[44]
  GI50: 504 nM
  TGI: > 100000 nM
[45]
  GI50: 588 nM
  TGI: 7.14 µM
[46]
  GI50: 758 nM
  TGI: 18.9 µM
[47]
  GI50: 346 nM
  TGI: 3820 nM
[48]
  GI50: 19.4 µM
  TGI: > 96.6 µM
[49]
  GI50: 265 nM
  TGI: > 100000 nM
[50]
  GI50: 308 nM
  TGI: 951 nM

From PubChem BioAssay (NCI)
